Key:
Adenosine receptor A3 [1] = target: T1, Adenosine receptor A3 (Homo sapiens, UniProt P0DMS8); experiment: Binding affinity at human Adenosine A3 receptor expressed in HEK 293 cells by [125I]AB-MECA displacement.; format: cell-based, HEK293
T1 sequence (P0DMS8 whole entry): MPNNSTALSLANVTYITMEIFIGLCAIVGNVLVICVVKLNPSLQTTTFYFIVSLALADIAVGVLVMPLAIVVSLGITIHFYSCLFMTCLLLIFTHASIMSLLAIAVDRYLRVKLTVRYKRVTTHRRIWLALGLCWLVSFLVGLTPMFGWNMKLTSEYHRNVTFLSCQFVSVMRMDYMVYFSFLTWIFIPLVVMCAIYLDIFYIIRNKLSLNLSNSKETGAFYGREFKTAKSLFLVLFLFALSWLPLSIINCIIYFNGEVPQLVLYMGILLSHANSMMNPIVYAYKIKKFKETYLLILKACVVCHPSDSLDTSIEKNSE

[2] = target: Adenosine receptors; A1 & A3 (Rattus norvegicus) (UniProt P25099+P28647); experiment: Ratio of displacement of A1 receptor to A3 receptor; format: protein assay
[3] = target: T2, Adenosine receptor A3 (Homo sapiens) (UniProt P0DMS8); experiment: Percentage of [35S]GTP-gamma-S, binding to the human adenosine A3 receptor stimulated at 10E-4 M; format: functional
T2 sequence (whole entry): T1 sequence (P0DMS8 whole entry)

Adenosine receptor A1 = target: T3, Adenosine receptor A1 (Rattus norvegicus, UniProt P25099); experiment: Displacement of [3H]DPCPX from rat cortical membranes Adenosine A1 receptor; format: cell membranes, Membrane
T3 sequence (P25099 whole entry): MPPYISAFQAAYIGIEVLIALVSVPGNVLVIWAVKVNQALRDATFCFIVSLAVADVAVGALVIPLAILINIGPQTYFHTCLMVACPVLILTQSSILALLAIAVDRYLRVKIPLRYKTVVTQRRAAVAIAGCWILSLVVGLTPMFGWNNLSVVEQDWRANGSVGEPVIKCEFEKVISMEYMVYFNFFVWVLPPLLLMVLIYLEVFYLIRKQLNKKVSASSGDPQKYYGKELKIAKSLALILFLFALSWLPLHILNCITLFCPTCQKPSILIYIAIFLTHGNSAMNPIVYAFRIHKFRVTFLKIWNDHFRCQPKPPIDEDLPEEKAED

[4] = target: T2, Adenosine receptor A3 (Homo sapiens); experiment: Inhibition of forskolin-stimulated cAMP production mediated by human adenosine A3 receptor expressed in CHO cells at 10 uM; format: functional, cell-based
Adenosine receptor A3 [5] = target: T1, Adenosine receptor A3; experiment: Effective concentration for stimulation of [35S]GTP-gamma-S, binding to human adenosine A3 receptor; format: functional
[6] = target: T2, Adenosine receptor A3 (Homo sapiens); experiment: Inhibition of forskolin-induced c-AMP production by adenosine A3 receptor with 10 uM NECA; format: functional
Adenosine receptor A2a [7] = target: T4, Adenosine receptor A2a (Rattus norvegicus, UniProt P30543); experiment: Displacement of [3H]-CGS- 21680 from Adenosine A2A receptor of rat striatal membranes; format: cell membranes, Membrane
[8] = target: Adenosine receptor A2a (Rattus norvegicus) (UniProt P30543); experiment: Percentage displacement of [3H]-CGS- 21680 from Adenosine A2A receptor of rat striatal membranes at 10 uM; format: cell membranes; details: Membrane
[9] = target: T5, Adenosine receptor A1 (Rattus norvegicus) (UniProt P25099); experiment: Percentage displacement of [3H]DPCPX from rat cortical membranes Adenosine A1 receptor at 10 uM; format: cell membranes; details: Membrane
T5 sequence (whole entry): T3 sequence (P25099 whole entry)

Adenosine receptor A3 [10] = target: T1, Adenosine receptor A3; experiment: Displacement of [125I]AB-MECA from human Adenosine A3 receptor expressed in HEK 293 cells; format: cell-based, HEK293
Adenosine receptor A2a [11] = target: T4, Adenosine receptor A2a; experiment: Displacement of [3H]-CGS- […] from Adenosine A2A receptor of rat striatal membranes; format: cell membranes, Membrane

Adenosine receptor A2a (Rattus norvegicus), sequence (P30543 whole entry): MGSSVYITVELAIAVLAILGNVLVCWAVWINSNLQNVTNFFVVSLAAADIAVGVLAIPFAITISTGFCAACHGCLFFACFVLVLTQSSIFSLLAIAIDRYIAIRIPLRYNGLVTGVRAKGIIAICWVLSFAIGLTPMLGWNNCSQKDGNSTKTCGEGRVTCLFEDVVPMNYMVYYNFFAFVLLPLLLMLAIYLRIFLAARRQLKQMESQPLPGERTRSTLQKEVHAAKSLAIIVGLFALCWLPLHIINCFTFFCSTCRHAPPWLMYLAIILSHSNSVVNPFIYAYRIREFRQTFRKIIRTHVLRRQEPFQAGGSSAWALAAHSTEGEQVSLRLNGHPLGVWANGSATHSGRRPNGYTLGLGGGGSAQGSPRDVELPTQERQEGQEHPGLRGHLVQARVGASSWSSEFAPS
T4 sequence (P30543 whole entry): as above

SMILES | Ki (Adenosine receptor A3 [1]) [nM] | Ratio [2] | Radioligand bound [3] [%] | further results
CSC[C@H]1O[C@@H](n2cnc3c(NCc4cccc(I)c4)ncnc32)[C@H](O)[C@@H]1O | 8.78 | 69.5 | 41 | Ki (Adenosine receptor A1): 610 nM; inhibition [4]: 64%; EC50 (Adenosine receptor A3 [5]): 27 nM; inhibition [6]: 87%; Ki (Adenosine receptor A2a [7]): 1820 nM
CC(C)SC[C@H]1O[C@@H](n2cnc3c(NCc4cccc(I)c4)ncnc32)[C@H](O)[C@@H]1O | 46.3 | > 216 | 16 | Displacement [8]: 45%; Displacement [9]: 35%
OC[C@H]1O[C@@H](n2cnc3c(NCc4cccc(I)c4)ncnc32)[C@H](O)[C@@H]1O | – | – | 56 | inhibition [4]: 86%; inhibition [6]: 91%
CCSC[C@H]1O[C@@H](n2cnc3c(NC4CCCC4)ncnc32)[C@H](O)[C@@H]1O | 90 | 0.5 | – | –
CCCSC[C@H]1O[C@@H](n2cnc3c(NCc4ccccc4)ncnc32)[C@H](O)[C@@H]1O | 647 | 8.7 | 7 | Ki (Adenosine receptor A1): 5870 nM; Ki (Adenosine receptor A2a [7]): 7990 nM
CSC[C@H]1O[C@@H](n2cnc3c(NC4CCCC4)ncnc32)[C@H](O)[C@@H]1O | 74 | 0.8 | – | –
CSC[C@H]1O[C@@H](n2cnc3c(NCc4ccccc4)ncnc32)[C@H](O)[C@@H]1O | 128 | > 78.1 | 52 | inhibition [4]: 60%; Displacement [8]: 25%; Displacement [9]: 31%; EC50 (Adenosine receptor A3 [5]): 473 nM; inhibition [6]: 93%
CCSC[C@H]1O[C@@H](n2cnc3c(NCc4cccc(I)c4)ncnc32)[C@H](O)[C@@H]1O | 17.5 | 41.1 | 21 | Ki (Adenosine receptor A1): 720 nM; Ki (Adenosine receptor A2a [7]): 1080 nM
OC[C@H]1O[C@@H](n2cnc3c(NC4CCCC4)ncnc32)[C@H](O)[C@@H]1O [N6-CYCLOPENTYLADENOSINE] | 120 | – | – | –
OC[C@H]1O[C@@H](n2cnc3c(NCc4ccccc4)ncnc32)[C@H](O)[C@@H]1O [N6-BENZYLADENOSINE] | 550 | – | 81 | inhibition [4]: 82%; EC50 (Adenosine receptor A3 [5]): 384 nM; inhibition [6]: 94%; Ki (Adenosine receptor A2a [7]): 733 nM
CCCSC[C@H]1O[C@@H](n2cnc3c(NC4CCCC4)ncnc32)[C@H](O)[C@@H]1O | 193 | 0.39 | – | –
O[C@H]1[C@@H](c2ccon2)OC(n2cnc3c(NCc4cccc(I)c4)nc(Cl)nc32)[C@H]1O (some centres undefined) | 7.8 | – | – | –
O[C@@H]1[C@H](O)[C@@H](CCl)O[C@H]1n1cnc2c(NC3CCCC3)ncnc21 | 1290 | 0.007 | – | –
O[C@@H]1[C@H](O)[C@@H](CCl)O[C@H]1n1cnc2c(NCc3ccccc3)ncnc21 | 1860 | > 5.4 | 13 | Displacement [9]: 47%; Ki (Adenosine receptor A2a [7]): 641 nM
CNC(=O)[C@H]1OC(n2cnc3c(NCc4ccccc4)ncnc32)[C@@H](O)[C@H]1O (some centres undefined) | 41 | – | – | –
CNC(=O)C[C@H]1OC(n2cnc3c(NCc4cccc(I)c4)nc(Cl)nc32)[C@@H](O)[C@H]1O (some centres undefined) | – | – | – | Ki (Adenosine receptor A3 [10]): 0.33 nM
COc1cccc(CNc2nc(Cl)nc3c2ncn3C2O[C@H](c3ccon3)[C@H](O)[C@@H]2O)c1 (some centres undefined) | 31 | – | – | –
CC(C)SC[C@H]1O[C@@H](n2cnc3c(NCc4ccccc4)ncnc32)[C@H](O)[C@@H]1O | 211 | > 47.4 | 22 | Displacement [8]: 6%; Displacement [9]: 14%
CCCSC[C@H]1O[C@@H](n2cnc3c(NCc4cccc(I)c4)ncnc32)[C@H](O)[C@@H]1O | 44.3 | > 226 | 10 | Displacement [8]: 42%; Displacement [9]: 42%
CC(C)SC[C@H]1O[C@@H](n2cnc3c(NC4CCCC4)ncnc32)[C@H](O)[C@@H]1O | 137 | 0.3 | – | Ki (Adenosine receptor A2a [11]): 10200 nM; Ki (Adenosine receptor A1): 41 nM
CCSC[C@H]1O[C@@H](n2cnc3c(NCc4ccccc4)ncnc32)[C@H](O)[C@@H]1O | 159 | > 62.9 | 19 | Displacement [8]: 38%; Displacement [9]: 29%
CCNC(=O)[C@H]1O[C@@H](n2cnc3c(N)ncnc32)[C@H](O)[C@@H]1O | – | – | 100 | inhibition [4]: 100%
O[C@@H]1[C@H](O)[C@@H](CCl)O[C@H]1n1cnc2c(NCc3cccc(I)c3)ncnc21 | 188 | 1.4 | 8 | Ki (Adenosine receptor A1): 270 nM; Ki (Adenosine receptor A2a [7]): 457 nM
